Experimental data reported in patent publication US20230024096A1, “BIFUNCTIONAL COMPOUNDS FOR THE TREATMENT OF CANCER” (Hoffmann-La Roche Inc., priority 2019, published 2023).

Molecular target: T1, SMARCA2 (Homo sapiens, UniProt P51531)
T1 construct: endogenous in cells; host or cells: HT1080 (CRISPR HiBiT knock-in clone, generated in house)
Test: SMARCA2 HiBiT degradation assay (cellular)
Type: cell-based
Settings: table head names A549; for DC50: HiBiT-tagged SMARCA2, luminescence read-out, read-out: HiBit A549 SMARCA2 IP (nM) 6 h; for Emax: A549, 6 h incubation

[1] = Emax = amount of residual protein remaining in the cell following compound treatment

T1 sequence (P51531 whole entry): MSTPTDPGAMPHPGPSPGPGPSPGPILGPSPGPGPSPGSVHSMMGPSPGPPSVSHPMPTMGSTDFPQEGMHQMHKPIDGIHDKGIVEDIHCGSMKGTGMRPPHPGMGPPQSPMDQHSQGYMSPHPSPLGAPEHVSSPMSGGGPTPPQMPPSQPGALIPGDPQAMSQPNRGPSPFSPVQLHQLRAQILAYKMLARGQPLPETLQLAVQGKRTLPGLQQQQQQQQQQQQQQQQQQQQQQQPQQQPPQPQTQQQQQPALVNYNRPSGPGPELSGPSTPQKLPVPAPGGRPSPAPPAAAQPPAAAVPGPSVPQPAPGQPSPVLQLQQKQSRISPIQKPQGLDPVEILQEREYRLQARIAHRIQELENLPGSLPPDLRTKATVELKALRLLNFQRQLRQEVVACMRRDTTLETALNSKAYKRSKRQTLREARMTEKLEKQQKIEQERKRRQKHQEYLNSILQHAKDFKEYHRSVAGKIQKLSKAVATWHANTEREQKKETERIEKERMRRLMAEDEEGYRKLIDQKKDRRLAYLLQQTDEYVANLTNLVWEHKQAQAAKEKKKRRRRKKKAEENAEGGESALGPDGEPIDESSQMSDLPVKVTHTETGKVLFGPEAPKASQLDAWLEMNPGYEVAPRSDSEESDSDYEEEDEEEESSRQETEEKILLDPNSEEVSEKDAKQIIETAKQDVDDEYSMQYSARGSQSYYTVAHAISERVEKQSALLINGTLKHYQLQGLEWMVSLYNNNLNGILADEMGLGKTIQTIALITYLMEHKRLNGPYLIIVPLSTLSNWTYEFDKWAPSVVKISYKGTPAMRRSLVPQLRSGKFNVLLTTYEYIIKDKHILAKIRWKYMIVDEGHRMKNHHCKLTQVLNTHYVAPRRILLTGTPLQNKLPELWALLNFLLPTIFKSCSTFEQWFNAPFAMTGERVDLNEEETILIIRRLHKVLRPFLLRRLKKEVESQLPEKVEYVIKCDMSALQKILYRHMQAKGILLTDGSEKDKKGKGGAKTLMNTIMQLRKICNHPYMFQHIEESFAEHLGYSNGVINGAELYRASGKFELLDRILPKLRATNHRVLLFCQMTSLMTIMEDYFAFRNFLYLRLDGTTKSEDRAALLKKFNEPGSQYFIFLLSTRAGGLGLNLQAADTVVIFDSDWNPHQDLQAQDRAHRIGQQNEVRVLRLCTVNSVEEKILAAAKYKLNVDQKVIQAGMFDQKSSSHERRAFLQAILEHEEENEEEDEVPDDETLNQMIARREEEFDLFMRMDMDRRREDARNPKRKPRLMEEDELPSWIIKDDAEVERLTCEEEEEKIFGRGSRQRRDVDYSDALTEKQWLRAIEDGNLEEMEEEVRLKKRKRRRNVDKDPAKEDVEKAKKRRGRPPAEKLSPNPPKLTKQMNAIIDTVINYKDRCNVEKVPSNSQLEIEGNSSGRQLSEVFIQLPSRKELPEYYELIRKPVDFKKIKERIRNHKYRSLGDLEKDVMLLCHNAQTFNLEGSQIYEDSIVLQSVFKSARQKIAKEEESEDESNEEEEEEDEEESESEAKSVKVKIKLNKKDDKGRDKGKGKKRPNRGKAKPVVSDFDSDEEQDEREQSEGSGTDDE

Structure (SMILES)	DC50 (6 h incubation) [nM]	Emax [1] [%]	HiBit A549 SMARCA2 Emax (%) 6 h (6 h incubation, Emax = amount of residual protein remaining in the cell following compound treatment) [%]
Nc1nnc(-c2ccccc2O)cc1N1CCC(C(=O)N2CCC(C(=O)N3CCN(Cc4ccc5c(c4)C(=O)N(C4CCC(=O)NC4=O)C5=O)CC3)CC2)(c2ccccc2)CC1 (stereo not drawn) [Example 174, 5-((4-(1-(1-(3-amino-6-(2-hydroxyphenyl)pyridazin-4-yl)-4-phenylpiperidine-4-carbonyl)piperidine-4-carbonyl)piperazin-1-yl)methyl)-2-(2,6-dioxopiperidin-3-yl)isoindoline-1,3-dione]	123	54	
Nc1nnc(-c2ccccc2O)cc1N1CC2CCC(C1)N2c1cccc(CN2CCC(C(=O)N3CCC(c4ccc(NC5CCC(=O)NC5=O)cc4)CC3)CC2)c1 (racemic) [Example 93, rac-3-[4-[1-[1-[[3-[3-[3-amino-6-(2-hydroxyphenyl)pyridazin-4-yl]-3,8-diazabicyclo[3.2.1]octan-8-yl]phenyl]methyl]piperidine-4-carbonyl]-4-piperidyl]anilino]piperidine-2,6-dione]	9	52	
Nc1nnc(-c2ccccc2O)cc1N1CCN(c2ccccc2)C(C(=O)NC2CCN(C(=O)CC3CCN(c4ccc5c(c4)C(=O)N(C4CCC(=O)NC4=O)C5=O)CC3)CC2)C1 (stereo not drawn) [Example 53, 4-[3-amino-6-(2-hydroxyphenyl)pyridazin-4-yl]-N-[1-[2-[1-[2-(2,6-dioxo-3-piperidyl)-1,3-dioxo-isoindolin-5-yl]-4-piperidyl]acetyl]-4-piperidyl]-1-phenyl-piperazine-2-carboxamide]	122	46	
Nc1nnc(-c2ccccc2O)cc1N1CC(Oc2ccc(CN3CCN(C(=O)CCCCCCNc4cccc5c4C(=O)N(C4CCC(=O)NC4=O)C5=O)CC3)cc2)C1 (stereo not drawn) [Example 67, 4-[[7-[4-[[4-[1-[3-amino-6-(2-hydroxyphenyl)pyridazin-4-yl]azetidin-3-yl]oxyphenyl]methyl]piperazin-1-yl]-7-oxo-heptyl]amino]-2-(2,6-dioxo-3-piperidyl)isoindoline-1,3-dione]	37	54	
Nc1nnc(-c2ccccc2O)cc1N1CC2CCC(C1)N2c1cccc(CN2CCN(C(=O)CCC3CCN(c4ccc5c(c4)C(=O)N(C4CCC(=O)NC4=O)C5=O)CC3)CC2)n1 (racemic) [Example 133, rac-5-[4-[3-[4-[[6-[3-[3-amino-6-(2-hydroxyphenyl)pyridazin-4-yl]-3,8-diazabicyclo[3.2.1]octan-8-yl]-2-pyridyl]methyl]piperazin-1-yl]-3-oxo-propyl]-1-piperidyl]-2-(2,6-dioxo-3-piperidyl)isoindoline-1,3-dione]	64	44	
CN(C(=O)C1CCN(Cc2cccc(N3C4CCC3CN(c3cc(-c5ccccc5O)nnc3N)C4)c2)CC1)C1CCN(c2ccc3c(c2)C(=O)N(C2CCC(=O)NC2=O)C3=O)CC1 (racemic) [Example 118, rac-1-[[3-[3-[3-amino-6-(2-hydroxyphenyl)pyridazin-4-yl]-3,8-diazabicyclo[3.2.1]octan-8-yl]phenyl]methyl]-N-[1-[2-(2,6-dioxo-3-piperidyl)-1,3-dioxo-isoindolin-5-yl]-4-piperidyl]-N-methyl-piperidine-4-carboxamide]	11	26	
CC(Oc1cccc2c1C(=O)N(C1CCC(=O)NC1=O)C2=O)c1cn(CCCCCCCCCN2CCN(c3ccc(N4CCC[C@H](Oc5cc(-c6ccccc6O)nnc5N)C4)cc3)CC2)nn1 (mixture of isomers) [Example 126, 2-(2,6-dioxo-3-piperidyl)-4-[1-[1-[9-[4-[4-[rac-(3S)-3-[3-amino-6-(2-hydroxyphenyl)pyridazin-4-yl]oxy-1-piperidyl]phenyl]piperazin-1-yl]nonyl]triazol-4-yl]ethoxy]isoindoline-1,3-dione]	73	26	
Nc1nnc(-c2ccccc2O)cc1N1CCN(c2cccc(OCCN3CCN(C(=O)C4CCN(c5ccc6c(c5)C(=O)N(C5CCC(=O)NC5=O)C6=O)CC4)CC3)c2)C2(CCC2)C1 (stereo not drawn) [Example 197, 5-[4-[4-[2-[3-[8-[3-amino-6-(2-hydroxyphenyl)pyridazin-4-yl]-5,8-diazaspiro[3.5]nonan-5-yl]phenoxy]ethyl]piperazine-1-carbonyl]-1-piperidyl]-2-(2,6-dioxo-3-piperidyl)isoindoline-1,3-dione]	46	30	
Nc1nnc(-c2ccccc2O)cc1N1CC2CCC(C1)N2c1cccc(CN2CCN(C(=O)CN3CCC(c4ccc(NC5CCC(=O)NC5=O)cc4)CC3)CC2)c1 (racemic) [Example 149, rac-3-[4-[1-[2-[4-[[3-[3-[3-Amino-6-(2-hydroxyphenyl)pyridazin-4-yl]-3,8-diazabicyclo[3.2.1]octan-8-yl]phenyl]methyl]piperazin-1-yl]-2-oxo-ethyl]-4-piperidyl]anilino]piperidine-2,6-dione]	18	40	
Nc1nnc(-c2ccccc2O)cc1N1CC2CCC(C1)N2c1cccc(CN2CCN(C(=O)C3CCN(c4ccc5c(c4)C(=O)N(C4CCC(=O)NC4=O)C5=O)CC3)CC2)c1 (racemic) [Example 46, rac-5-[4-[4-[[3-[3-[3-Amino-6-(2-hydroxyphenyl)pyridazin-4-yl]-3,8-diazabicyclo[3.2.1]octan-8-yl]phenyl]methyl]piperazine-1-carbonyl]-1-piperidyl]-2-(2,6-dioxo-3-piperidyl)isoindoline-1,3-dione]	12	24	
Nc1nnc(-c2ccccc2O)cc1OC1CCCN(c2ccc(OCCN3CCN(C(=O)CCCCCCCCn4cc(CNc5cccc6c5C(=O)N(C5CCC(=O)NC5=O)C6=O)nn4)CC3)cc2)C1 (stereo not drawn) [Example 27, 4-[[1-[9-[4-[2-[4-[3-[3-amino-6-(2-hydroxyphenyl)pyridazin-4-yl]oxy-1-piperidyl]phenoxy]ethyl]piperazin-1-yl]-9-oxo-nonyl]triazol-4-yl]methylamino]-2-(2,6-dioxo-3-piperidyl)isoindoline-1,3-dione]	333	57	
Nc1nnc(-c2ccccc2O)cc1N1CC(Oc2ccc(C(=O)N3CCN(C(=O)CCCCCCCCCNc4cccc5c4C(=O)N(C4CCC(=O)NC4=O)C5=O)CC3)cc2)C1 (stereo not drawn) [Example 150, 4-[[10-[4-[4-[1-[3-amino-6-(2-hydroxyphenyl)pyridazin-4-yl]azetidin-3-yl]oxybenzoyl]piperazin-1-yl]-10-oxo-decyl]amino]-2-(2,6-dioxo-3-piperidyl)isoindoline-1,3-dione]	553	65	
Nc1nnc(-c2ccccc2O)cc1N1CC2CCC(C1)N2c1cccc(OCCN2CCN(C(=O)CCCCCNc3cccc4c3C(=O)N(C3CCC(=O)NC3=O)C4=O)CC2)c1 (racemic) [Example 12, rac-4-[[6-[4-[2-[3-[3-[3-amino-6-(2-hydroxyphenyl)pyridazin-4-yl]-3,8-diazabicyclo[3.2.1]octan-8-yl]phenoxy]ethyl]piperazin-1-yl]-6-oxo-hexyl]amino]-2-(2,6-dioxo-3-piperidyl)isoindoline-1,3-dione]	60	55	
Nc1nnc(-c2ccccc2O)cc1N1CC(Oc2cccc(N3CCN(C(=O)CN4CCC(c5ccc(NC6CCC(=O)NC6=O)cc5)CC4)CC3)c2)C1 (racemic) [Example 112, rac-3-[4-[1-[2-[4-[3-[1-[3-amino-6-(2-hydroxyphenyl)pyridazin-4-yl]azetidin-3-yl]oxyphenyl]piperazin-1-yl]-2-oxo-ethyl]-4-piperidyl]anilino]piperidine-2,6-dione]	101	51	
Nc1nnc(-c2ccccc2O)cc1N1CC2CCC(C1)N2c1cccc(OCCN2CCN(C(=O)CNC(=O)C3CCN(c4ccc5c(c4)C(=O)N(C4CCC(=O)NC4=O)C5=O)CC3)CC2)c1 (racemic) [Example 19, rac-N-[2-[4-[2-[3-[3-[3-amino-6-(2-hydroxyphenyl)pyridazin-4-yl]-3,8-diazabicyclo[3.2.1]octan-8-yl]phenoxy]ethyl]piperazin-1-yl]-2-oxo-ethyl]-1-[2-(2,6-dioxo-3-piperidyl)-1,3-dioxo-isoindolin-5-yl]piperidine-4-carboxamide]	64		34
Nc1nnc(-c2ccccc2O)cc1N1CC2CCC(C1)N2c1cccc(OCCN2CCN(C(=O)N3CCC(Oc4ccc5c(c4)C(=O)N(C4CCC(=O)NC4=O)C5=O)CC3)CC2)c1 (racemic) [Example 40, rac-5-[[1-[4-[2-[3-[3-[3-amino-6-(2-hydroxyphenyl)pyridazin-4-yl]-3,8-diazabicyclo[3.2.1]octan-8-yl]phenoxy]ethyl]piperazine-1-carbonyl]-4-piperidyl]oxy]-2-(2,6-dioxo-3-piperidyl)isoindoline-1,3-dione]	22	32	
Nc1nnc(-c2ccccc2O)cc1N1CC2CCC(C1)N2c1cc(F)cc(CN2CCN(C(=O)C3CCN(c4ccc5c(c4)C(=O)N(C4CCC(=O)NC4=O)C5=O)CC3)CC2)c1 (racemic) [Example 193, rac-5-[4-[4-[[3-[3-[3-Amino-6-(2-hydroxyphenyl)pyridazin-4-yl]-3,8-diazabicyclo[3.2.1]octan-8-yl]-5-fluoro-phenyl]methyl]piperazine-1-carbonyl]-1-piperidyl]-2-(2,6-dioxo-3-piperidyl)isoindoline-1,3-dione]	51	25	
Nc1ccccc1-c1cc(N2CC3CCC(C2)N3c2cccc(CN3CCN(C(=O)C4CCN(c5ccc6c(c5)C(=O)N(C5CCC(=O)NC5=O)C6=O)CC4)CC3)c2)c(N)nn1 (stereo not drawn) [Example 147, 5-[4-[4-[[3-[3-[3-amino-6-(2-aminophenyl)pyridazin-4-yl]-3,8-diazabicyclo[3.2.1]octan-8-yl]phenyl]methyl]piperazine-1-carbonyl]-1-piperidyl]-2-(2,6-dioxo-3-piperidyl)isoindoline-1,3-dione]	236	69	
